# Source: patent US8680052B1, “Methods of treating, reducing the incidence of, and/or preventing ischemic events” (The Medicines Company, priority 2013, dated 2014)
# Read-outs that look alike come from different tables or passages of the source.
# System: patients undergoing percutaneous coronary intervention (PCI)
# Settings: for Mortality/Q-wave MI/IDR / Mortality/Q-wave MI/Stent thrombosis: exploratory; for Angiographic complications (site reported): Abrupt vessel closure / Angiographic complications (site reported): Acute stent thrombosis / Angiographic complications (site reported): Need for urgent CABG / Angiographic complications (site reported): New thrombus or suspected thrombus / Angiographic complications (site reported): Threatened abrupt closure / Angiographic complications (site reported): Unsuccessful procedure: index PCI
# Method: The diagnosis of non-ST-segment elevation myocardial infarction required troponin I or T greater than the upper limit of normal within 24 hours of randomization (or if troponin results were unavailable at that time, creatine kinase-myocardial band isoenzyme [CK-MB] greater than the upper limit of normal). The diagnosis of unstable angina required ischemic chest discomfort occurring at rest and lasting ≧10 minutes within the 24 hours prior to randomization and dynamic electrocardiographic changes; age ≧65 years and/or diabetes mellitus were also required.
# The primary efficacy endpoint was the composite of mortality, myocardial infarction, or ischemia-driven revascularization at 48 hours. The primary analysis was performed on a modified intent-to-treat population. Confirmatory analyses were performed on an intent-to-treat population. Secondary endpoints included the individual rates of mortality, myocardial infarction, new Q-wave myocardial infarction, ischemia-driven revascularization, abrupt vessel closure, or stroke at 48 hours. Mortality at 30 days and 1 year was also recorded. The clinical events committee adjudicated myocardial infarction, Q-wave myocardial infarction, ischemia-driven revascularization, stent thromboses, and stroke (ischemic or hemorrhagic). The definition of stent thrombosis was similar to the Academic Research Consortium definition of definite stent thrombosis. After review of the prespecified analyses, two exploratory endpoints less reliant on periprocedural biomarker ascertainment were examined. The exploratory endpoints, which were composed of prespecified and adjudicated endpoints, were the composite of mortality, Q-wave myocardial infarction, or ischemia-driven revascularization and the composite of mortality, Q-wave myocardial infarction, or stent thrombosis. Bleeding and adverse events through 48 hours were compared.
# All efficacy analyses were performed on the modified intent-to-treat population, defined as all randomized patients who received at least one dose of study drug and underwent the index PCI. All safety-related analyses were performed on the safety population, which included all patients who received at least one dose of assigned study drug. Patients in the safety analyses were assigned to a treatment arm based on treatment actually received, not as randomized. Intent-to-treat analyses are also presented for full disclosure of results. All statistical tests were two-tailed using a level of significance of 0.05. […] Logistic regression was also used to analyze the majority of the remaining secondary endpoints.
smiles,measurement,setting,value
"COC(=O)[C@H](c1ccccc1Cl)N1CCc2sccc2C1 [Clopidogrel, clopidogrel, reference compound]",All-cause mortality,"30-day, ITT",47 (1.8) no. (%)
same,IDR,"30-day, ITT",49 (1.8) no. (%)
same,MI,"30-day, ITT",202 (7.6) no. (%)
same,Mortality/MI/IDR,"30-day, ITT",254 (9.6) no. (%)
same,Q-wave MI,"30-day, ITT",15 (0.6) no. (%)
same,Stent thrombosis,"30-day, ITT",29 (1.1) no. (%)
same,Mortality/Q-wave MI/IDR,"30-day, ITT",94 (3.5) no. (%)
same,Mortality/Q-wave MI/Stent thrombosis,"30-day, ITT",77 (2.9) no. (%)
same,All-cause mortality,"30-day, MITT",45 (1.7) no. (%)
same,IDR,"30-day, MITT",46 (1.7) no. (%)
same,MI,"30-day, MITT",201 (7.6) no. (%)
same,Mortality/MI/IDR,"30-day, MITT",249 (9.5) no. (%)
same,Q-wave MI,"30-day, MITT",14 (0.5) no. (%)
same,Stent thrombosis,"30-day, MITT",28 (1.1) no. (%)
same,Mortality/Q-wave MI/IDR,"30-day, MITT",89 (3.4) no. (%)
same,Mortality/Q-wave MI/Stent thrombosis,"30-day, MITT",73 (2.8) no. (%)
same,All-cause mortality,"30-day, Safety population",45 (1.7) no. (%)
same,IDR,"30-day, Safety population",47 (1.8) no. (%)
same,MI,"30-day, Safety population",203 (7.7) no. (%)
same,Mortality/MI/IDR,"30-day, Safety population",251 (9.5) no. (%)
same,Q-wave MI,"30-day, Safety population",15 (0.6) no. (%)
same,Stent thrombosis,"30-day, Safety population",28 (1.1) no. (%)
same,Mortality/Q-wave MI/IDR,"30-day, Safety population",90 (3.4) no. (%)
same,Mortality/Q-wave MI/Stent thrombosis,"30-day, Safety population",74 (2.8) no. (%)
same,All-cause mortality,"48-hour, ITT",19 (0.7) no. (%)
same,IDR,"48-hour, ITT",26 (1.0) no. (%)
same,MI,"48-hour, ITT",192 (7.2) no. (%)
same,Mortality/MI/IDR,"48-hour, ITT",213 (8.0) no. (%)
same,Q-wave MI,"48-hour, ITT",9 (0.3) no. (%)
same,Stent thrombosis,"48-hour, ITT",16 (0.6) no. (%)
same,Stroke,"48-hour, ITT",6 (0.2) no. (%)
same,Mortality/Q-wave MI/IDR,"48-hour, ITT",44 (1.7) no. (%)
same,Mortality/Q-wave MI/Stent thrombosis,"48-hour, ITT",36 (1.4) no. (%)
same,All-cause mortality,"48-hour, MITT",18 (0.7) no. (%)
same,IDR,"48-hour, MITT",24 (0.9) no. (%)
same,MI,"48-hour, MITT",191 (7.2) no. (%)
same,Mortality/MI/IDR (primary endpoint),"48-hour, MITT",210 (8.0) no. (%)
same,Q-wave MI,"48-hour, MITT",8 (0.3) no. (%)
same,Stent thrombosis,"48-hour, MITT",16 (0.6) no. (%)
same,Stroke,"48-hour, MITT",5 (0.2) no. (%)
same,Mortality/Q-wave MI/IDR,"48-hour, MITT",41 (1.6) no. (%)
same,Mortality/Q-wave MI/Stent thrombosis,"48-hour, MITT",34 (1.3) no. (%)
same,Mortality/Q-wave MI/IDR,"48-hour, Safety population",42 (1.6) no. (%)
same,Mortality/Q-wave MI/Stent thrombosis,"48-hour, Safety population",35 (1.3) no. (%)
same,All-cause mortality,"48-hour, safety population",18 (0.7) no. (%)
same,IDR,"48-hour, safety population",25 (0.9) no. (%)
same,MI,"48-hour, safety population",193 (7.3) no. (%)
same,Mortality/MI/IDR,"48-hour, safety population",212 (8.0) no. (%)
same,Q-wave MI,"48-hour, safety population",9 (0.3) no. (%)
same,Stent thrombosis,"48-hour, safety population",16 (0.6) no. (%)
same,Stroke,"48-hour, safety population",5 (0.2) no. (%)
same,Angiographic complications (site reported): Abrupt vessel closure,ITT,16 (0.6)
same,Angiographic complications (site reported): Acute stent thrombosis,ITT,5 (0.2)
same,Angiographic complications (site reported): Need for urgent CABG,ITT,4 (0.2)
same,Angiographic complications (site reported): New thrombus or suspected thrombus,ITT,15 (0.6)
same,Angiographic complications (site reported): Threatened abrupt closure,ITT,9 (0.3)
same,Angiographic complications (site reported): Unsuccessful procedure,ITT,97 (3.7)
same,Angiographic complications (site reported): Abrupt vessel closure,MITT,16 (0.6)
same,Angiographic complications (site reported): Acute stent thrombosis,MITT,5 (0.2)
same,Angiographic complications (site reported): Need for urgent CABG,MITT,3 (0.1)
same,Angiographic complications (site reported): New thrombus or suspected thrombus,MITT,15 (0.6)
same,Angiographic complications (site reported): Threatened abrupt closure,MITT,9 (0.3)
same,Angiographic complications (site reported): Unsuccessful procedure,MITT,95 (3.6)
same,Angiographic complications (site reported): Abrupt vessel closure,Safety population,16 (0.6)
same,Angiographic complications (site reported): Acute stent thrombosis,Safety population,5 (0.2)
same,Angiographic complications (site reported): Need for urgent CABG,Safety population,3 (0.1)
same,Angiographic complications (site reported): New thrombus or suspected thrombus,Safety population,15 (0.6)
same,Angiographic complications (site reported): Threatened abrupt closure,Safety population,9 (0.3)
same,Angiographic complications (site reported): Unsuccessful procedure,Safety population,95 (3.6)
